# Test results as given in patent publication US12583870B2, “Azaheteroaryl compound and application thereof” (SHANGHAI BLUERAY BIOPHARMA CO., LTD., priority 2019, dated 2026).
# Columns and labels:
# [1] = biological target: T1, EED protein (His6-tagged full-length) binding to H3K27me3 polypeptide (Homo sapiens, UniProt O75530); assay: AlphaScreen evaluation of blocking the binding of EED to H3K27Me3; conditions: EED 60 nM, biotinylated H3K27me3 75 nM, 30 minutes incubation
# T1 construct: His6-tagged full-length EED protein (441 amino acids)
# T1 sequence (O75530 whole entry): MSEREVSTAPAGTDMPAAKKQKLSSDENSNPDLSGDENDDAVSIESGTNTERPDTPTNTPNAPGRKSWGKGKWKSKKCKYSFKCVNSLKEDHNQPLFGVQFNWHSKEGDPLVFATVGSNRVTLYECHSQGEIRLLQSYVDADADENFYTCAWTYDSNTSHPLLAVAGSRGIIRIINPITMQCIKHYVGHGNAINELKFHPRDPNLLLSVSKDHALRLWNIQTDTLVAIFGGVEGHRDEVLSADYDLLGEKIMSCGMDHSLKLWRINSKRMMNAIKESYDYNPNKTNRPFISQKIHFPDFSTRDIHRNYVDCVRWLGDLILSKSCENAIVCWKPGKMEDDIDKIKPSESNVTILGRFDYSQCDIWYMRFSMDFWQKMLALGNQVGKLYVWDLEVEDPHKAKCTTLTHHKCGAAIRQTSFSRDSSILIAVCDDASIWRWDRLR
# Experimental: Firstly, compound solutions of different concentration gradients were prepared. Compound powder was dissolved in DMSO to prepare a mother liquor. 1.5 μl of the mother liquor of the compound was taken and added into 198.5 μl of a reaction buffer (25 mM HEPES (pH 8.0), 50 mM NaCl, 0.015% Tween 20, 0.5% BSA). The mixture was mixed uniformly. Then a 3-fold series dilution was carried out with the above-mentioned buffer containing 0.75% DMSO. 9 different test concentrations were provided for one same compound. 5 μL of compounds of different concentration gradients were taken and added into the ProxiPlate-384 Plus, White detection plate (PerkinElmer, 6008280) and two replicates in parallel were provided for each concentration gradient.
# Secondly, a reaction for blocking the binding was carried out. The above-mentioned buffer was used to dilute His6-tagged full-length EED protein (441 amino acids) to 60 nM and biotinylated polypeptide fragment H3K27me3 (amino acids at positions 19-33) (Biotinylated-H3K27me3) to 75 nM. 5 μl of the polypeptide fragment at the concentration of 75 nM and 5 µl of the protein at the concentration of 60 nM were transferred to the detection wells containing the compound, respectively. The detection plate was sealed with the film and incubation was carried out at room temperature for 30 minutes.
# Finally, the detection was carried out with the AlphaScreen method. Prior use, nickel chelate receptor beads and streptavidin donor beads (at the ratio of 1:1, Perkin Elmer, product number 6760619M) were mixed with the above-mentioned reaction buffer. Then 5 μl of the above-mentioned pre-mixed detection solution was added to each of the detection wells. The donor beads and receptor beads were both at a final concentration of 5 μg/mL. The detection plate was covered and sealed with tinfoil and placed in the dark at room temperature for 1 hour. The signal was read using the AlphaScreen detector on the Spectra max i3. AlphaScreen signals were standardlized based on the readings obtained from positive controls (maximum signal controls) and negative controls (minimum signal controls) to give the inhibition rates for compounds at different concentrations, and afterwards non-linear regression analysis was carried out using GraphPad Prism 5, inhibition curves were made based on the Dose-Response equation of Y=Bottom+(Top−Bottom)/(1+10^((Log IC50−X)*HillSlope)) and the IC50 values of each compound were obtained. […]
# [2] = system: trimethylation level of histone H3K27 in G401 cells; assay: ELISA (H3K27 trimethylation) analysis in G401 cells; format: cell-based; conditions: Homo sapiens, G-401, 72 hours, H3K27me3 standardized to H3
# In short: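 Cells exposed 72 h to 10-point 3-fold dilutions, top 10 μM, 0.5% final DMSO. Acid-extracted histones assayed by ELISA (ECL) for H3K27me3, normalized to total H3 and to DMSO control; IC50 from dose-response fit.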
# KARPAS-422 cells = assay: Cell proliferation analysis, KARPAS-422, 13 days, CellTiter-Glo; format: cell-based; conditions: Homo sapiens, 312 h
# In short: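 KARPAS-422 cells were treated with PRC2 inhibitors over 9 three-fold dilutions from 10 μM top (0.5% DMSO, duplicates) in RPMI-1640 with 15% FBS at 37 °C. Every 3–4 days cells were counted and reseeded at 1×10^4/well with fresh compound. Viability was read by CellTiter-Glo luminescence on day 13.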
SMILES,IC50 [1] [µM],IC50 [2] [µM],IC50 (KARPAS-422 cells) [µM]
"O=S1(=O)C=c2ccc(-c3cnc(NCc4c(F)ccc5c4CCCO5)n4cnnc34)cc2=C1 [5-(5-(((6-fluorochroman-5-yl)methyl)amino)-[1,2,4]triazolo[4,3-c]pyrimidin-8-yl)benzo[c]thiophene 2,2-dioxide]",0.0064,0.002,0.0016
"CC1=Cc2cc(-c3cnc(NCc4c(F)ccc5c4[C@H]4C[C@H]4O5)n4cnnc34)ccc2S1(=O)=O [5-(5-((((1aR,6bR)-5-fluoro-1a,6b-dihydro-1H-cyclopropa[b]benzofuran-6-yl)methyl)amino)-[1,2,4]triazolo[4,3-c]pyrimidin-8-yl)-2-methylbenzo[b]thiophene 1,1-dioxide]",0.0049,0.0041,0.0125
"CC1=CS(=O)(=O)c2ccc(-c3cnc(NCc4c(F)ccc5c4[C@H]4C[C@H]4O5)n4cnnc34)cc21 [5-(5-((((1aR,6bR)-5-fluoro-1a,6b-dihydro-1H-cyclopropa[b]benzofuran-6-yl)methyl)amino)-[1,2,4]triazolo[4,3-c]pyrimidin-8-yl)-3-methylbenzo[b]thiophene 1,1-dioxide]",0.0049,0.0136,0.0243
"O=S1(=O)C=Cc2cc(-c3cnc(NCc4c(F)ccc5c4[C@H]4C[C@H]4O5)n4cnnc34)ccc21 [5-(5-((((1aR,6bR)-5-fluoro-1a,6b-dihydro-1H-cyclopropa[b]benzofuran-6-yl)methyl)amino)-[1,2,4]triazolo[4,3-c]pyrimidin-8-yl)benzo[b]thiophene 1,1-dioxide]",0.0038,0.0008,0.0007
"O=S1(=O)C=c2ccc(-c3cnc(NCc4c(F)ccc5c4[C@H]4C[C@H]4O5)n4cnnc34)cc2=C1 [5-(5-((((1aR,6bR)-5-fluoro-1a,6b-dihydro-1H-cyclopropa[b]benzofuran-6-yl)methyl)amino)-[1,2,4]triazolo[4,3-c]pyrimidin-8-yl)benzo[c]thiophene 2,2-dioxide]",0.0063,0.0006,0.0008
"O=S1(=O)C=Cc2cc(-c3cnc(NCc4c(F)ccc5c4[C@@H]4C[C@@H]4O5)n4cnnc34)ccc21 [5-(5-((((1aS,6bS)-5-fluoro-1a,6b-dihydro-1H-cyclopropa[b]benzofuran-6-yl)methyl)amino)-[1,2,4]triazolo[4,3-c]pyrimidin-8-yl)benzo[b]thiophene 1,1-dioxide]",0.015,0.016,0.0038
"CC1=Cc2ccc(-c3cnc(NCc4c(F)ccc5c4CCO5)n4cnnc34)cc2S1(=O)=O [6-(5-(((5-fluoro-2,3-dihydrobenzofuran-4-yl)methyl)amino)-[1,2,4]triazolo[4,3-c]pyrimidin-8-yl)-2-methylbenzo[b]thiophene 1,1-dioxide]",0.0027,0.0079,0.0088
"CC1=C(C)S(=O)(=O)c2c(F)cc(-c3cnc(NCc4c(F)ccc5c4CCO5)n4cnnc34)cc21 [7-fluoro-5-(5-(((5-fluoro-2,3-dihydrobenzofuran-4-yl)methyl)amino)-[1,2,4]triazolo[4,3-c]pyrimidin-8-yl)-2,3-dimethylbenzo[b]thiophene 1,1-dioxide]",0.002,0.014,0.0087
"O=S1(=O)C=Cc2cc(-c3cnc(NCc4c(F)ccc5c4CCO5)n4cnnc34)cc(F)c21 [7-fluoro-5-(5-(((5-fluoro-2,3-dihydrobenzofuran-4-yl)methyl)amino)-[1,2,4]triazolo[4,3-c]pyrimidin-8-yl)benzo[b]thiophene 1,1-dioxide]",0.0045,0.0028,0.0005
"Cc1ccc(-c2cnc(NCc3c(F)ccc4c3CCO4)n3cnnc23)c2ncc(C)n12 [8-(3,5-dimethylimidazo[1,2-a]pyridin-8-yl)-N-((5-fluoro-2,3-dihydrobenzofuran-4-yl)methyl)-[1,2,4]triazolo[4,3-c]pyrimidin-5-amine]",0.0051,0.0027,0.0019
"Fc1cc(-c2cnc(NCc3c(F)ccc4c3CCO4)n3cnnc23)c2ncc(F)n2c1 [8-(3,6-difluoroimidazo[1,2-a]pyridin-8-yl)-N-((5-fluoro-2,3-dihydrobenzofuran-4-yl)methyl)-[1,2,4]triazolo[4,3-c]pyrimidin-5-amine]",0.0052,0.0077,0.0075
"CCc1cnc2c(-c3cnc(NCc4c(F)ccc5c4CCO5)n4cnnc34)ccc(C)n12 [8-(3-ethyl-5-methylimidazo[1,2-a]pyridin-8-yl)-N-((5-fluoro-2,3-dihydrobenzofuran-4-yl)methyl)-[1,2,4]triazolo[4,3-c]pyrimidin-5-amine]",0.003,0.0025,0.0022
"CCc1cnc2c(-c3cnc(NCc4c(F)ccc5c4CCO5)n4cnnc34)cccn12 [8-(3-ethylimidazo[1,2-a]pyridin-8-yl)-N-((5-fluoro-2,3-dihydrobenzofuran-4-yl)methyl)-[1,2,4]triazolo[4,3-c]pyrimidin-5-amine]",0.0025,0.0009,0.0009
"Fc1ccc2c(c1CNc1ncc(-c3cccn4c(Cc5ccccc5)cnc34)c3nncn13)CCO2 [8-(3-phenylmethylimidazo[1,2-a]pyridin-8-yl)-N-((5-fluoro-2,3-dihydrobenzofuran-4-yl)methyl)-[1,2,4]triazolo[4,3-c]pyrimidin-5-amine]",0.0012,0.0045,0.0036
"N#Cc1cnc2c(-c3cnc(NCc4c(F)ccc5c4CCO5)n4cnnc34)cccn12 [8-(5-(((5-fluoro-2,3-dihydrobenzofuran-4-yl)methyl)amino)-[1,2,4]triazolo[4,3-c]pyrimidin-8-yl)imidazo[1,2-a]pyridine-3-carbonitrile]",0.0047,0.0032,0.0035
"NC(=O)c1cnc2c(-c3cnc(NCc4c(F)ccc5c4CCO5)n4cnnc34)cccn12 [8-(5-(((5-fluoro-2,3-dihydrobenzofuran-4-yl)methyl)amino)-[1,2,4]triazolo[4,3-c]pyrimidin-8-yl)imidazo[1,2-a]pyridine-3-carboxamide]",0.0035,0.0041,0.0037
"Fc1ccc2c(c1CNc1ncc(-c3cc(Cl)cn4ccnc34)c3nncn13)CCO2 [8-(6-chloroimidazo[1,2-a]pyridin-8-yl)-N-((5-fluoro-2,3-dihydrobenzofuran-4-yl)methyl)-[1,2,4]triazolo[4,3-c]pyrimidin-5-amine]",0.0044,0.0085,0.042
"Fc1ccc2c(c1CNc1ncc(-c3ccn4ncnc4c3)c3nncn13)[C@H]1C[C@H]1O2 [8-([1,2,4]triazolo[1,5-a]pyridin-7-yl)-N-(((1aR,6bR)-5-fluoro-1a,6b-dihydro-1H-cyclopropa[b]benzofuran-6-yl)methyl)-[1,2,4]triazolo[4,3-c]pyrimidin-5-amine]",0.0045,0.0073,0.0077
"Fc1ccc2c(c1CNc1ncc(-c3cccn4ncnc34)c3nncn13)[C@H]1C[C@H]1O2 [8-([1,2,4]triazolo[1,5-a]pyridin-8-yl)-N-(((1aR,6bR)-5-fluoro-1a,6b-dihydro-1H-cyclopropa[b]benzofuran-6-yl)methyl)-[1,2,4]triazolo[4,3-c]pyrimidin-5-amine]",0.004,0.0007,0.0019
"Fc1ccc2c(c1CNc1ncc(-c3ccc4nncn4c3)c3nncn13)[C@H]1C[C@H]1O2 [8-([1,2,4]triazolo[4,3-a]pyridin-6-yl)-N-(((1aR,6bR)-5-fluoro-1a,6b-dihydro-1H-cyclopropa[b]benzofuran-6-yl)methyl)-[1,2,4]triazolo[4,3-c]pyrimidin-5-amine]",0.0042,0.0064,0.0431
